Source: patent US12351596B2 (priority 2019, dated 2025)
“Also recorded” adds a separate entry of the source.

System: antibodies present in serum samples from melioidosis patients
Assay type: binding, human

| Molecule | ability to detect antibodies present in serum samples from melioidosis patients | ability to detect the antibodies compared with other antigens |
| --- | --- | --- |
| CO[C@H]1[C@@H](OC(C)=O)[C@H](O[C@@H]2[C@@H](O)[C@H](O[C@@H]3[C@H](O)[C@H](C)O[C@@H](O[C@@H]4[C@@H](O)[C@H](OCCCCCN)O[C@H](CO)[C@H]4O)[C@@H]3OC(C)=O)O[C@H](CO)[C@H]2O)O[C@@H](C)[C@H]1OC(C)=O.Cl [tetrasaccharide 8, (5-Amino-1-pentyl) 2,4-di-O-acetyl-6-deoxy-3-O-methyl-α-L-talopyranosyl-(1→3)-β-D-glucopyranosyl-(1→3)-2-O-acetyl-6-deoxy-α-L-talopyranosyl-(1→3)-β-D-glucopyranoside hydrochloride] | exquisite mimics of the whole Bp and Bm LPS OAgs; also recorded: able to detect antibodies present in serum samples from melioidosis patients |  |
| (5-Amino-1-pentyl) 2-O-acetyl-6-deoxy-3-O-methyl-α-L-talopyranosyl-(1→3)-β-D-glucopyranosyl-(1→3)-2-O-acetyl-6-deoxy-α-L-talopyranosyl-(1→3)-δ-D-glucopyranoside hydrochloride [tetrasaccharide 9] | exquisite mimics of the whole Bp and Bm LPS OAgs; also recorded: able to detect antibodies present in serum samples from melioidosis patients | as effective as tetrasaccharide 8 |
